Laboratory results as given in patent publication US9849174B2, “Methods and compositions related to immunogenic fibrils” (The Board of Regents of the University of Texas System, priority 2009, dated 2017).
Entries after “also recorded” stand apart in the source; their conditions may differ.

Legend:
[1] = target: T1, streptavidin-conjugated gold particles (Streptomyces avidinii, UniProt P22629); experiment: Streptavidin-gold labelling of fibrils imaged by TEM; type: binding; details: 5 nm streptavidin-conjugated gold
T1 construct: purchased Sigma
T1 sequence (P22629 25-183): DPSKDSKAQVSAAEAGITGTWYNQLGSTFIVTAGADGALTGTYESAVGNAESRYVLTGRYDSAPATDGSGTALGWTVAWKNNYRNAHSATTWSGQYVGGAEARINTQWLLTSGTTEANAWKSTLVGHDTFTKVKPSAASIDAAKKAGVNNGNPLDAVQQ
Description: The availability of the OVA epitope on the surface of O-Q11 nanofibers was confirmed by TEM and by ELISA. To label epitopes in TEM samples, an N-terminally biotinylated O-Q11 was synthesized with a single biotin tag directly adjacent to the OVA sequence. This biotinylated peptide produced fibrils that appeared morphologically similar to O-Q11 (FIG. 2D). Five-nanometer streptavidin-conjugated gold particles were then used to probe epitope availability on the fibril surface, with unmodified Q11 serving as a negative control. […] To confirm this finding and to quantify the availability of the entire epitope, ELISA was employed. Plates coated with OVA and O-Q11 peptides were probed with antisera from mice immunized with OVA, either with or without complete Freund's adjuvant (CFA).
Transmission Electron Microscopy. Peptides were dissolved in deionized water and mixed 6:1 with PBS to produce working peptide concentrations of 330 μM. After fibrillizing for 4h, peptides were applied to 400 mesh gold grids with carbon support films, negative-stained with 1% uranyl acetate, and imaged on a Tecnai F30 TEM. For gold staining, prior to negative-staining grids were placed upside-down on a droplet of blocking solution (0.2% acetylated BSA, 0.1% gelatin from cold water fish skin in PBS) for 5 min, then for 2 h on a droplet of 5 nm colloidal gold conjugated to streptavidin (Sigma). […]

C57BL/6 mice = experiment: Subcutaneous immunization of mice, serum antibody titers and isotypes by ELISA (Example 1); type: in vivo
Description: To investigate how fibrillization affected the immunogenicity of OVA, C57BL/6 mice were immunized subcutaneously with the different peptides and boosted with additional peptide at 28 days (see methods). Serum was collected seven days after the boost, and levels of various immunoglobulins were measured.
Immunizations. […] Stock solutions were then diluted in sterile, endotoxin-free PBS to working concentrations. […] CFA-adjuvanted groups received the same volume and total peptide dose, prepared by emulsifying peptide/PBS solutions 1:1 in CFA. […] CFA groups were boosted in incomplete Freund's adjuvant (IFA). Mice receiving mixtures of Q11 and OVA received 100 nmol of each peptide in the first injection and 50 nmol of each in the second. Seven days after the boost, the mice were sacrificed, and sera and spleens were harvested.
Determination of antibody titers. High-binding ELISA plates (eBioscience) were coated with either 20 μg/mL peptide in PBS or PBS alone (for uncoated background subtraction) overnight at 4° C. […] To determine titers for each antiserum, background absorbance values from uncoated wells were subtracted from coated wells, and net absorbances were compared to cutoff values. The cutoff consisted of the mean plus three times the standard deviation of the negative control group (mice receiving OVA without adjuvant) for each corresponding dilution. Any sample dilutions having absorbances above this cutoff value were considered positive readings. The titer was considered as the highest dilution for which it and all lower dilutions had positive readings. If no positive dilutions were present the titer was considered to be 10^2. […] Antibody isotypes were analyzed similarly using a mouse monoclonal antibody kit containing goat anti-mouse IgG1, IgG2a, IgG2b, IgG3, and IgM (Sigma).

CFSE labeled OTII cells = experiment: Adoptive transfer of CFSE-labeled OTII T cells and immunization; type: in vivo, mice; details: 100 nmol s.c., five days after immunization, spleen and lymph nodes
Description: Antibody responses to self-assembled peptides are T cell-dependent. […] To determine the requirement for T cells, an adoptive T cell transfer assay was performed. Specifically, mice were injected with CFSE labeled […] cells, which express receptors for the H-2^b restricted OVA epitope. Antigen-mediated proliferation causes a decrease in the CFSE intensity which can be detected by flow cytometry.
Adoptive Transfer of T cells OTII transgenic mice on C57BL/6 background, whose T cells recognize the OVA peptide and carry a marker to distinguish them from naïve T cells from B6 mice (CD90.1 congenic). In vivo CD4+ T cell proliferation was analyzed after adoptive transfer into mice and immunization with the peptides. Briefly, splenocytes and lymph nodes of OTII+ C57BL/6 mice were processed into a single cell suspension and enriched for CD4+ T cells, by negative magnetic separation (Miltenyi Biotec). […] After staining, cells were washed twice with FACS buffer and samples were run on the LSR-II (BD Biosciences, NJ) flow cytometer and analyzed for evidence of proliferation as indicated by dilution of CFSE intensity using. FlowJo cytometry analysis software (Tree Star, OR) was used to analyze and quantify the results. […]

[2] = ranges: high and low values among three batches for each peptide
Description: Endotoxin levels of all formulations were tested using a Limulus Amebocyte Lystae (LAL) chromogenic end point assay (Lonza, USA).
To account for batch-to-batch variability three different sets of peptides were synthesized for immunizing mice.

[3] = test system: primary human endothelial cells; details: cited from earlier work
mice = details: mouse, in vivo; cited from earlier work
rat myocardium = details: in vivo; cited from earlier work
mouse myocardium = details: in vivo; cited from earlier work

Substance | Binding of streptavidin-gold to fibrils [1] | Total IgG response (C57BL/6 mice; delivered in CFA) | Total IgG response (C57BL/6 mice; delivered with or without CFA) | Total IgG response (C57BL/6 mice; peptide in PBS without added adjuvant, s.c., boost day 28, serum 7 days after boost) | Transferred cells that proliferated (shift in CFSE intensity) (CFSE labeled OTII cells) | Endotoxin [2] | Cell death / cytotoxicity in primary cell cultures [3] | Antibody responses (mice) | Tissue responses (rat myocardium) | Tissue responses (mouse myocardium)
Ac-QQKFQFQFEQQ-NH2 [Peptide Q11, Ac-QQKFQFQFEQQ-Am] | negligible numbers of particles; also recorded: did not bind streptavidin-gold | non-immunogenic even in CFA | did not raise any detectable IgG | did not elicit a response | negligible shift in CFSE intensity | 0.024-0.098 EU/mL | did not induce cell death | little to no antibody responses |  | 
n-RARADADARARADADA-c [RAD16-II] |  |  |  |  |  |  |  |  | Negligible tissue responses | Negligible tissue responses
